Source: patent US7838608B2, “Fluorinated surfactants for making fluoropolymers” (3M Innovative Properties Company, priority 2005, dated 2010)

Assay: Determination of bio-accumulation: urinary clearance pharmacokinetic study in rats
Details: oral gavage, 73 micro Moles per kg body weight
Method: Determination of Bio-Accumulation
The fluorinated surfactants were evaluated for urinary clearance using a pharmacokinetic study in rats. The goal was to measure the total amount of parent compound eliminated via urinary output and estimate the rate of elimination.
The study utilized male Sprague Dawley rats, 6 to 8 weeks of age, and approximately 200 to 250 g body weight at study onset. The test compounds of table 2 were administered at a dose of 73 micro Moles per kg body weight in rats (N=3 animals per tested compound). All test compounds were prepared in sterile deionized water and given to rats via oral gavage. After test compounds administration, the rats were housed individually in metabolism cages for urine collection: 0 to 6 hours, 6 to 24 hours, 24 to 48 hours and 72 to 96 hours. Animals were observed throughout the study for clinical signs of toxicity. Gross necropsy was performed at the termination of each study (96 hours post-dose) with sera and liver samples being retained from each animal.
The concentration of the parent compound or metabolites thereof were quantitatively measured via fluorine NMR on each urine sample for each animal at each time point based on internally added standards.
T1/2 is the renal half-life and is the time required for the amount of a particular substance in a biological system to be reduced to one half of its value by biological processes when the rate of removal is approximately exponential. In these examples the value of T1/2 is calculated by exponential least squares curve fitting (y=Ae^Bx and T1/2=0.693/B) where y represents the concentration of analyte in urine and x represents time in hours.

| SMILES | Compound-related Effects (clinical signs of toxicity and gross necropsy at 96 hours post-dose) | % Recovery (96 h) (recovery in urine after 96 h) [%] | T½ (renal elimination half-life) (urine measured by fluorine NMR, exponential least squares curve fitting) [h] |
| --- | --- | --- | --- |
| N.O=C(O)C(F)(F)C(F)(F)C(F)(F)C(F)(F)C(F)(F)C(F)(F)C(F)(F)F [APFO, ammonium perfluorooctanoic acid, reference compound] | Hepatomegaly | – | – |
| N.O=C(O)C(F)OC(F)(F)C(F)(F)C(F)(F)OC(F)(F)F (stereo not drawn) [Compound 3, CF3—O—CF2—CF2—CF2—O—CHF—COONH4] | – | 95 | 11 |
